Test results as given in ChEMBL document CHEMBL3351956, “Design and synthesis of novel 1,2,3-triazole-pyrimidine hybrids as potential anticancer agents” (Eur J Med Chem, 2014).

Legend:
Assay type in all cases: functional, cell-based
[1] = Cytotoxicity against human EC109 cells assessed as inhibition of proliferation after 72 hrs by MTT assay; conditions: ECa-109, 72 h
[2] = tested on: MCF7; assay: Cytotoxicity against human MCF7 cells assessed as inhibition of proliferation after 72 hrs by MTT assay; conditions: MCF7, 72 h
[3] = tested on: MGC-803; assay: Cytotoxicity against human MGC803 cells assessed as inhibition of proliferation after 72 hrs by MTT assay; conditions: MGC-803, 72 h
[4] = Cytotoxicity against mouse B16F10 cells assessed as inhibition of proliferation after 72 hrs by MTT assay; conditions: B16-F10, 72 h

Structure (SMILES) | IC50 [1] | IC50 [2] | IC50 [3] | IC50 [4]
COc1ccc(Nc2nc(SCc3cn(Cc4ccccc4Cl)nn3)nc(-c3ccc(C(C)C)cc3)c2C#N)cc1 | 3.58 µM | 10.2 µM | > 64 µM | 2.69 µM
O=c1[nH]cc(F)c(=O)[nH]1 [FLUOROURACIL] | 10.8 µM | 8.93 µM | 7.69 µM | 0.87 µM
